From US7112601B2, “Cycloalkyl heterocycles for treating hepatitis C virus” (priority 2003, dated 2006)
pIC50: −log10 of the molar value.

Assays:
HCV = settings: combination therapy, HCV patients (Poynard et al. Lancet 1998); cited from earlier work
HCV NS5B RdRp = target: T1, HCV NS5B RdRp (Hepatitis C virus genotype 1b, UniProt Q9WMX2); test: HCV NS5B RdRp enzyme inhibition assay; assay type: biochemical
T1 construct: The protein was expressed with an 18 amino acid C-terminal truncation to enhance the solubility; made in house; host or cells: E. coli BL21(DE3)
Method: HCV NS5B RdRp cloning, expression, and purification. The cDNA encoding the NS5B protein of HCV, genotype 1b, was cloned into the pET21a expression vector. The protein was expressed with an 18 amino acid C-terminal truncation to enhance the solubility. The E. coli competent cell line BL21(DE3) was used for expression of the protein. Cultures were grown at 37° C. for ˜4 hours until the cultures reached an optical density of 2.0 at 600 nm. The cultures were cooled to 20° C. and induced with 1 mM IPTG. Fresh ampicillin was added to a final concentration of 50 ug/ml and the cells were grown overnight at 20° C.
Cell pellets (3L) were lysed for purification to yield 15–24 mgs of purified NS5B. The lysis buffer consisted of 20 mM Tris-HCl, pH 7.4, 500 mM NaCl, 0.5% triton X-100, 1 mM DTT, 1 mM EDTA, 20% glycerol, 0.5 mg/ml lysozyme, 10 mM MgCl2, 15 ug/ml deoxyribonuclease I, and Complete TM protease inhibitor tablets (Roche). After addition of the lysis buffer, frozen cell pellets were resuspended using a tissue homogenizer. To reduce the viscosity of the sample, aliquots of the lysate were sonicated on ice using a microtip attached to a Branson sonicator. The sonicated lysate was centrifuged at 100,000×g for 1 hr at 4° C. and filtered through a 0.2 μm filter unit (Corning).
The protein was purified using three sequential chromatography steps: Heparin sepharose CL-6B, polyU sepharose 4B, and Hitrap SP sepharose (Pharmacia). The chromatography buffers were identical to the lysis buffer but contained no lysozyme, deoxyribonuclease I, MgCl2 or protease inhibitor and the NaCl concentration of the buffer was adjusted according to the requirements for charging the protein onto the column. Each column was eluted with a NaCl gradient which varied in length from 5–50 column volumes depending on the column type. After the final chromatography step, the resulting purity of the enzyme is >90% based on SDS-PAGE analysis. The enzyme was aliquoted and stored at −80° C.
HCV NS5B RdRp enzyme assay. HCV RdRp genotype 1b assays were run in assay buffer composed of 20 mM Tris-HCl, pH 7.5, 2.5 mM KCl, 5 mM MgCl2, 1 mM DTT, 1.6 U RNAse inhibitor (Promega N2515), in 96 well plates (Falcon 3918). All compounds were serially diluted in DMSO and diluted further in assay buffer such that the final concentration of DMSO in the assay was 2%. Compounds were serially diluted (3-fold each time) for a 7 point inhibition analysis. HCV RdRp genotype 1b enzyme was used at a final concentration of 28 nM. A polyA template was used at 28 nM, and the oligo-dT12-18 primer was used at 840 nM final concentration. Preannealed primer and template were obtained commercially (Amersham 27-787802). ^3H-UTP was used at 0.125 μCi (1 μM total UTP). Reaction was initiated by the addition of enzyme. Reactions were incubated at 30° C. for 45 min, and stopped by adding 30 ul of 20% ice cold TCA. Plates were chilled for 30 minutes and harvested onto Unifilter-96, GF/B plates (Packard, 6005177) using a Packard FilterMate Cell Harvester. The harvest plates were prewashed 3 times, 200 ul/well, with 100 mM NaPPi. Harvested filters were washed 30 times, 200 ul/well, with distilled water followed by ethanol. Filter plates were dried, and 30 ul/well microscint-20 was added. Plates were read on a Packard Top Count NXT.
The IC50 values for compounds were determined using […] different [I], combined with 7 nM enzyme, 800 ng of the template-primer polyC/oligoG12 (1:5 molar ratio), and 0.7 uM of ^3H GTP containing 1 uCi. The observed fractional activity (fa=vi/vo) was used in the equation IC50=[I]/(1/fa-1) to determine a single point IC50 value. Typically, the single point IC50 values derived from [I] that produced fractional activities in the range of 0.1 to 0.8 relative to the uninhibited control were averaged to calculate the IC50 value for each compound.

T1 sequence (Q9WMX2 2420-2992): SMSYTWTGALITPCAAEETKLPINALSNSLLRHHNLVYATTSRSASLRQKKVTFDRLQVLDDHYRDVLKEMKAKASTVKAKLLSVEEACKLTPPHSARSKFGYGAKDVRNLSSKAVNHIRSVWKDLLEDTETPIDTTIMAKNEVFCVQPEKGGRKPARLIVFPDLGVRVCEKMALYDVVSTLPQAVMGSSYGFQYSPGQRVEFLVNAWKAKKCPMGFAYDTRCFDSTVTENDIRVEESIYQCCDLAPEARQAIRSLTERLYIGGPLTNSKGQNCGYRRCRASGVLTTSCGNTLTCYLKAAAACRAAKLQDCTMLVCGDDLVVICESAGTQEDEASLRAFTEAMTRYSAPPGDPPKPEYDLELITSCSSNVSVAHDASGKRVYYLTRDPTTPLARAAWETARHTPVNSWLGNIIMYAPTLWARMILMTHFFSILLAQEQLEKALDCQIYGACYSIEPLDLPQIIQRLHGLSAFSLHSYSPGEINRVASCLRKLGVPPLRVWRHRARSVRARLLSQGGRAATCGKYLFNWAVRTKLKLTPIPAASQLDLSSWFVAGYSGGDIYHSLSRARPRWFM

Compound: alpha-interferon and ribavirin
- sustained efficacy (HCV): 40 % of patients

Compound: CCOC(=O)c1nn(C2CCCCC2)c(-c2ccc(OCc3ccccc3)cc2)c1Br [Example 22, Ethyl 5-[4-(benzyloxy)phenyl]-4-bromo-1-cyclohexyl-1H-pyrazole-3-carboxylate]
- pIC50 (HCV NS5B RdRp): < 4.60

Compound: C/C(=C\c1cc(-c2ccc(OCc3ccccc3)cc2)n(C2CCCCC2)n1)C(=O)O [Example 7, (2E)-3-{5-[4-(benzyloxy)phenyl]-1-cyclohexyl-1H-pyrazol-3-yl}-2-methyl-2-propenoic acid]
- pIC50 (HCV NS5B RdRp): 5.00

Compound: COc1ccc(-c2ccc(Cl)cc2)c(COc2ccc(-c3cc(C#CC(=O)O)nn3C3CCCCC3)cc2)c1 [Example 21, 3-(5-{4-[(4′-chloro-4-methoxy-1,1′-biphenyl-2-yl)methoxy]phenyl}-1-cyclohexyl-1H-pyrazol-3-yl)-2-propynoic acid]
- pIC50 (HCV NS5B RdRp): 5.64

Compound: CCOC(=O)/C(C)=C/c1cc(-c2ccc(OCc3cc(C(=O)OC(C)(C)C)ccc3-c3ccc(Cl)cc3)cc2)n(C2CCCCC2)n1 [Example 11, Ethyl (2E)-3-(5-{4-[(4′-chloro-4-t-butoxycarbonyl-1,1′-biphenyl-2-yl)methoxy]phenyl}-1-cyclohexyl-1H-pyrazol-3-yl)-2-methyl-2-propenoate]
- pIC50 (HCV NS5B RdRp): < 4.60

Compound: C/C(=C\c1cn(C2CCCCC2)c(-c2ccc(OCc3ccccc3)cc2)n1)C(=O)O [Example 50, (2E)-3-{2-[4-(benzyloxy)phenyl]-1-cyclohexyl-1H-imidazol-4-yl}-2-methyl-2-propenoic acid]
- pIC50 (HCV NS5B RdRp): 4.82

Compound: COc1ccc(-c2ccc(Cl)cc2)c(COc2ccc(-c3cc(CCC(=O)O)nn3C3CCCCC3)cc2)c1 [Example 17, 3-(5-{4-[(4′-chloro-4-methoxy-1,1′-biphenyl-2-yl)methoxy]phenyl}-1-cyclohexyl-1H-pyrazol-3-yl)propanoic acid]
- pIC50 (HCV NS5B RdRp): 5.74

Compound: CCOC(=O)/C(C)=C/c1cn(C2CCCCC2)c(-c2ccc(OCc3ccccc3)cc2)n1 [Example 49, Ethyl (2E)-3-{2-[4-(benzyloxy)phenyl]-1-cyclohexyl-1H-imidazol-4-yl}-2-methyl-2-propenoate]
- pIC50 (HCV NS5B RdRp): < 4.60

Compound: CCOC(=O)C#Cc1cc(-c2ccc(OCc3cc(OC)ccc3-c3ccc(Cl)cc3)cc2)n(C2CCCCC2)n1 [Example 20, Ethyl 3-(5-{4-[(4′-chloro-4-methoxy-1,1′-biphenyl-2-yl)methoxy]phenyl}-1-cyclohexyl-1H-pyrazol-3-yl)-2-propynoate]
- pIC50 (HCV NS5B RdRp): < 4.60

Compound: CCOC(=O)/C(C)=C/c1cc(-c2ccc(OCc3cc(C(=O)OC(C)(C)C)ccc3Br)cc2)n(C2CCCCC2)n1 [Example 10, Ethyl (2E)-3-(5-{4-[(t-butyl-2-bromo-5-phenylcarboxylate)methoxy]phenyl}-1-cyclohexyl-1H-pyrazol-3-yl)-2-methyl-2-propenoate]
- pIC50 (HCV NS5B RdRp): < 4.60

Compound: CCOC(=O)c1cc(-c2ccc(OCc3ccccc3)cc2)n(C2CCCCC2)n1 [Example 1, Ethyl 1-cyclohexyl-5-(4-benzyloxyphenyl)-1H-pyrazole-3-carboxylate]
- pIC50 (HCV NS5B RdRp): < 4.60
